Patent US7795311B2, “Methods and compositions for the management of soil-borne fungal diseases” (Pittsburg State University, priority 2007, dated 2010)
Several values for one entry are separate records, joined by “and”; a condition that tells them apart may be missing. Equal values may be shown once.

Key:
[1] = test system: soil-borne fungal diseases; experiment: 1999/2000 foliar application: mean disease rating and percent mortality; format: in vivo, soybean; conditions: dead plants / germinated plants, week 11
Excerpt: Beginning at developmental stage V1, a visual disease rating was employed to determine the overall visual health of the plant based on foliar, pod and stem disease. The foliar disease rating system was based from the Soybean Diseases Atlas by the Southern Soybean Disease Workers (W. J. Walla, ed. 1979, Texas A&M University). A 1-5 rating system was utilized, wherein 1=0%, 2=25%, 3=50%, 4=75%, 5=100% based on leaf area affected by disease symptoms.
FIG. 2 illustrates the 1999 Mean Disease Rating for Each Foliar Application, Percent Mortality and the Statistical Significance as Measured by the Student-Newman-Keuls (“SNK”) Analysis. The disease ratings as shown in FIGS. 2 and 4 are an objective number rating assigned as a percentage of a plot infected having a rating scale of 1=0%, 2=25%, 3=50%, 4=75% and 5=100%. The SNK data comprising letters which are different are statistically significant from other letter assigned data sets, which allows the single year data to show how weather influences the outcome of the treatment. […] The mortality count was taken at week eleven (11) in the 1999 and 2000 growing seasons. As previously stated, the SNK statistical analysis illustrate the statistical significance of the data, wherein means with the same letter are not statistically different. […] Even lower, 1000 μg/ml of Carbenoxolone solution a mortality rate of 22%.

[2] = test system: soil-borne fungal diseases; experiment: 1999 and 2000 foliar treatment field trial: viability and mortality data; format: in vivo, soybean; conditions: 1999 foliar treatment
Method: (§1) Foliar treatments were prepared on site. R1 and R4 Foliar Carbenoxolone 1000μ/mL treatments were prepared by adding 3.785 g Carbenoxolone to 1 gallon of water and mixed until dissolved. The mixture was then sprayed directly onto foliage using specialized CO2 pressurized aerosol spray equipment set at a spray rate of 1 gallon/100 ft for four (4), twenty-five (25) foot rows and two (2) rows wide.
FIGS. 1 and 3 depict the 1999 and 2000 Foliar Treatment Viability and Mortality Data. In 1999, the Carbenoxolone concentration was varied between 125 and 1000 μg/ml diluted in one gallon of water. The treatment composition was applied to the canopy of plants at various developmental stages (V-2, R-1 and R-6). The foliar application was accomplished using the pressurized boom-spray unit attached to a tractor at reproductive stage V-2 or R-1, or by a backpack spray unit at reproductive stage R-6. The mortality and viability data were collected at developmental stage R-8, usually around week eleven (11) or twelve (12) in the plant's lifecycle. Also shown in FIGS. 1 and 3, the percent mortalities were calculated based on the number of plants that died at twelve (12) weeks of growth as compared to the total number of seeds planted per treatment. The viability percentages as shown in FIGS. 1 and 3 were calculated from the total number of seeds planted per treatment, as compared to the viability data taken at three (3) weeks of growth. The seed germination rate was greater than 99% and was determined prior to planting. […] This appears unchanged from the untreated control, which had similar percentages. […] The Carbenoxolone treatment solution having 125 μg/ml has a mortality percentage of approximately 10.4% compared to a mortality percentage of an uncontrolled of 20%.
The […] foliar treatment using Cabenoxolone also had similar results as in 1999. The mortality percentage of plants treated with a Carbenoxolone solution decreased when compared to an untreated control.

[3] = Field trial 2003-2005: seed yield; format: in vivo, soybean
Excerpt: At the end of the growing seasons, marked by plant senescence, the two (2) interior yield rows were harvested using a Massey-Ferguson two-row experimental test, combined with an onboard computer processor for determining seed weight, seed moisture and collection of samples. Yield data included seed moisture and seed weight, which were used to determine the overall yield for each test plot.
Yield data was obtained from the two (2) yield rows of twenty-five (25) feet using a conversion equation which utilized the fraction of acreage predetermined test weight and adjusted moisture of the seeds harvested. Yield values represent bushels per acre adjusted for moisture and test weight. […] Multiple comparisons were tested at α=0.1. Again as with previous Figures, treatments were either untreated control seed or seeds treated with a seed coating polymer in combination with Carbenoxolone. Foliar treatments indicate that the same compound used as a seed treatment was then applied as a foliar spray at a set plant development stage (R1 or R4).

[4] = test system: Pythium, Phytophthora, Phomopsis and Rhizoctonia fungal pathogens; experiment: Field trial 2003-2005: soybean post-emergence mortality by seed/foliar treatment; format: in vivo; set-up: concentration or dose not given beside the values
Excerpt: (§2) Test plots were organized into randomized block design consisting of fifteen (15) total treatments. Treatments included either a control group, a seed treatment, foliar treatment, or a combination seed and foliar treatment. Each treatment consisted of four (4), twenty-five (25) foot rows in each test plot. The fifteen (15) treatment blocks were planted in quadruplicate for a total of sixty (60) test plots. The test plots were labeled with numerical identification markers which represent the treatment, plot, and replication number. No samples were taken from the two (2) interior rows of each plot so that they could be used for counting plant mortality and harvested for seed yields. The two (2) outside rows were used to sample plants.
(§3) Seeds were treated with stock solutions of the following treatments. Carbenoxolone disodium salt 0, 125, 250, 500 and 1000 μg/L High Grade was utilized for management of Pythium, Phytophthora, Phomopsis and Rhizoctonia fungal pathogens. Gustafson's Magnacoat® (Gustafson, LLC, Plans, Tex.) was used as a seed-coating polymer in conjunction with the other treatment and as a control treatment. For example, stock solutions were prepared in 500 mL beakers as follows: […] High Grade was prepared by adding 0.105 g of 99% pure Carbenoxolone to 65 mL deionized water and mixing using a spatula until completely dissolved, then adding 35 mL Magnacoat® and 5 mL green Pro-lzed® colorant and mixing until homogenous for a total of 105 mL.
(§4) Seeds for each row were treated separately with compounds. A 2.1 mL sample was taken from the stock solution via pipette and placed in a 200 mL glass beaker. A single row seed sample was added to the beaker and the seeds were mixed with a glass stir rod until the seeds were completely covered. The samples were then spread onto a wax sheet and allowed to dry for one (1) to two (2) hours. Each treated seed sample was placed in a labeled twenty pound (20 lb), 4×6 inch manila coin envelope.
as §1
(§5) Germination data was taken at V1 by counting the emergent plants in the two (2) inner yield rows. Plant counts were used to compare with number of seeds planted to determine pre-emergence mortality due to soil-borne early season disease pressure. At the end of the growing season at developmental stage […] when plants were mature, but before full senescence, dead plants were counted. Plant counts were used to determine mortality data for the season caused by overall disease pressure.
Post-emergence mortality was obtained by totaling the number of dead plants at the end of the growing season as compared to the number of plants that successfully emerged. Plant mortality counts were taken at developmental stage R8, within the two (2) yield rows and an average of these mortality totals was obtained for all four (4) repetitions. Post-emergence mortality averages and standard deviations for all four (4) repetitions and treatments over three (3) years of testing are compared in FIG. 6. Post-emergence mortality indicates the number of plants that died within the growing season after emergence. Similar to FIG. 5, treatments were either untreated control seed or seeds treated with the polymer in combination with Carbenoxolone. Foliar treatments indicate that the same compound used as a seed treatment was then applied as a foliar spray at a set plant development stage (R1 or R4). The percentage is based on the average of V1 emerged viable seedlings counted compared to the R8 viable plants counted.

[5] = test system: Pythium, Phytophthora, Phomopsis and Rhizoctonia fungal pathogens; experiment: Field trial 2003-2005: soybean viability at R8 by seed/foliar treatment; format: in vivo; set-up: viability average: concentration or dose not given beside the values
Excerpt: as §2, §3, §4, §1
The viability data was obtained by totaling the number of healthy plants within the two (2) yield rows at the end of the growing season when plants reached developmental stage R8 and these totals were averaged and standard deviations calculated for all four (4) repetitions per treatment. […] Viability averages of all treatment repetitions for a growing year, for three (3) years of field-testing are compared in FIG. 7. Viability indicates the number of healthy plants at the end of the growing season. Similar to FIGS. 5 and 6, treatments were either untreated control seed or seeds treated with the polymer in combination with Carbenoxolone. Foliar treatments indicate that the same compound used as a seed treatment was then applied as a foliar spray at a set plant development stage (R1 or R4). Percentage is based on the average number of viable plants counted at R8.

[6] = test system: Pythium, Phytophthora, Phomopsis and Rhizoctonia fungal pathogens; experiment: Field trial 2003-2005: soybean pre-emergence mortality by seed/foliar treatment; format: in vivo; set-up: pre-emergence mortality, average non-emergent seeds: concentration or dose not given beside the values
Excerpt: as §2, §3, §4, §1, §5
In the yield rows, two-hundred and forty (240) seeds were planted per row in the yield rows at the beginning of the growing season, flanked by two (2) rows (two-hundred and forty (240) seeds in each row) for plant sampling. Rows were end trimmed to final twenty-five (25) foot rows with two-hundred (200) seed per row and eight (8) seeds per foot. Mortality data was determined only from the interior yield rows. An average of these pre-emergence mortality totals, (four-hundred (400) seeds in two (2) rows) for all four (4) repetitions was taken to represent pre-emergence mortality. Pre-emergence mortality averages for each treatment with calculated standard deviations are compared in FIG. 5. Pre-emergence mortality indicates the number of plants that died before emergence. Treatments were either untreated control seed or seeds treated with the polymer in combination with Carbenoxolone. Foliar treatments indicate that the same compound used as a seed treatment was then applied as a foliar spray at a set plant development stage (R1 or R4). […]

[7] = seed treatment combined with R1 foliar, three years of testing
[8] = seed combined with R1 foliar, 2003
[9] = seed combined with R1 foliar, 2005
[10] = seed combined with R4 foliar, 2004
[11] = seed combined with R4 foliar, 2005
[12] = seed treatment (with polymer), 2003
[13] = seed treatment (with polymer), 2004
[14] = seed treatment (with polymer), 2005
[15] = seed combined with R1 foliar, 2004
[16] = seed combined with R4 foliar, 2003

CC1(C)[C@@H](OC(=O)CCC(=O)O)CC[C@]2(C)[C@H]3C(=O)C=C4[C@@H]5C[C@@](C)(C(=O)O)CC[C@]5(C)CC[C@@]4(C)[C@]3(C)CC[C@@H]12 [Carbenoxolone, 3β-hydroxy-11-oxoolean-12-en-30-oic acid 3-hemisuccinate disodium]
mortality rate ([1]; foliar 500 μg/ml): 26%
mortality rate ([1]; foliar 1000 μg/ml): 22%
increase of viability percentage from the untreated control ([2]; 125 μg/ml): approximately 10%
mortality percentage ([2]; 125 μg/ml): approximately 10.4%
mortality rate ([2]; 1000 μg/ml, plants dead at 12 weeks vs seeds planted): approximately 20%
viability rate ([2]; 1000 μg/ml, viability at 3 weeks vs seeds planted): approximately 80%
improvement of the average yield ([3]; 2003-2005, not statistically significant): approximately 1.5 bushels/acre
increase of yield [3, 7]: 1.5 bushels per acre
increase of yield compared to other treatments [3, 7]: 6.9%
post-emergence mortality average ([4]; R1 foliar only, 2003): 5.0%
post-emergence mortality average ([4]; R1 foliar only, 2004): 1.6%
post-emergence mortality average ([4]; R1 foliar only, 2005): 3.33%
post-emergence mortality average ([4]; R4 foliar only, 2003): 6.25%
post-emergence mortality average ([4]; R4 foliar only, 2004): 1.6%
post-emergence mortality average ([4]; R4 foliar only, 2005): 3.33%
post-emergence mortality average [4, 8]: 5.41% and 5%
post-emergence mortality average [4, 9]: 3.33%
post-emergence mortality average [4, 10]: 2.08%
post-emergence mortality average [4, 11]: 2.5% and 2%
post-emergence mortality average [4, 12]: 5.0%
post-emergence mortality average [4, 13]: 2.08%
post-emergence mortality average [4, 14]: 2.5%
viability average ([5]; R1 foliar only, 2003): 77.08%
viability average ([5]; R1 foliar only, 2004): 63.33%
viability average ([5]; R1 foliar only, 2005): 77.5%
viability average ([5]; R4 foliar only, 2003): 69.16%
viability average ([5]; R4 foliar only, 2004): 60.83%
viability average ([5]; R4 foliar only, 2005): 76.66%
Dunnett's t Test analysis of viability data compared to the untreated control ([5]; seed combined with R1 foliar): statistically significant difference
viability average [5, 8]: 74.58%
viability average [5, 15]: 63.75%
viability average [5, 9]: 74.58%
viability average [5, 16]: 69.58%
viability average [5, 10]: 62.08%
viability average [5, 11]: 75.83%
viability average ([5]; seed treatment (with polymer), 2003, plants at R8): 78.39%
viability average ([5]; seed treatment (with polymer), 2004, plants at R8): 61.66%
viability average ([5]; seed treatment (with polymer), 2005, plants at R8): 75.41%
pre-emergence mortality, average non-emergent seeds ([6]; R1 foliar only (untreated seed), 2003): 27.50%
pre-emergence mortality, average non-emergent seeds ([6]; R1 foliar only (untreated seed), 2004): 41.25%
pre-emergence mortality, average non-emergent seeds ([6]; R1 foliar only (untreated seed), 2005): 27.08%
pre-emergence mortality, average non-emergent seeds ([6]; R4 foliar only (untreated seed), 2003): 35.41%
pre-emergence mortality, average non-emergent seeds ([6]; R4 foliar only (untreated seed), 2004): 43.75%
pre-emergence mortality, average non-emergent seeds ([6]; R4 foliar only (untreated seed), 2005): 27.91%
pre-emergence mortality, average non-emergent seeds [6, 8]: 30.0%
pre-emergence mortality, average non-emergent seeds [6, 15]: 41.24%
pre-emergence mortality, average non-emergent seeds [6, 9]: 30.0%
pre-emergence mortality, average non-emergent seeds [6, 16]: 36.66%
pre-emergence mortality, average non-emergent seeds [6, 10]: 42.5%
pre-emergence mortality, average non-emergent seeds [6, 11]: 28.75%
pre-emergence mortality, average non-emergent seeds [6, 12]: 26.25% and 26%
average germination higher in 2003 compared to 2004 ([6]; seed treatment (with polymer), 2003 vs 2004): 17%
pre-emergence mortality, average non-emergent seeds [6, 13]: 43.33% and 43%
pre-emergence mortality, average non-emergent seeds [6, 14]: 29.16% and 29%
